From patent US10830762B2, “Compositions and methods for inducing conformational changes in cereblon and other E3 ubiquitin ligases” (Celgene Corporation, priority 2015, dated 2020) come the findings set out here.

Structures are written as SMILES.

Experiment [1] relates to TMD8 (ABC) or Karpas 422 (GCB) cells. Briefly: 3H-thymidine incorporation proliferation assay with lenalidomide co-treatment. In kind it is cell-based. (Incorporation of labelled thymidine or its analogues reports DNA synthesis.)
Experiment [2] concerns the target T1, CRBN (Homo sapiens, UniProt Q96SW2, E377V).
T1 construct: re-express full length wild type (CRBN^WT); expressed in transfected cells; host or cells: DF15R (CRBN-deficient myeloma) cells, lentiviral transduction, cell extract
The experiment in a line: Thalidomide analog bead assay with extracts of DF15R cells re-expressing wild type or mutant CRBN. In kind it is binding. The settings on record: CRBN E377V mutant; preincubation of cell extracts with free compound. How it is done:
(§1) DF15, DF15R or DF15R derived cell line extracts were prepared in NP 40 lysis buffer (0.5% NP40, 50 mM Tris HCl (pH 8.0), 150 mM NaCl, 0.5 mM DTT, 0.25 mM PMSF, 1× protease inhibitor mix (Roche, Indianapolis, Ind.) at approximately 2×10^8 cells per ml […]. Cell debris and nucleic acids were cleared by centrifugation (14,000 rpm 30 min 4° C.). In competition experiments 0.5 ml (3-5 mg protein) aliquots of the resulting extracts were preincubated (15 min room temp.) with 5 μl DMSO (control) or 5 μl compound at varying concentrations in DMSO. Thalidomide analog-coupled beads (0.3-0.5 mg) were added to protein extracts and samples rotated (2 hours, 4° C.). Beads were washed three times with 0.5 ml NP40 buffer, and then bound proteins were eluted with SDS-PAGE sample buffer.
(§2) Cell extracts from these lines were then used to assay the ability of CRBN to bind immunomodulatory agent compound.
(§3) Cell extracts from this line were used to assay the ability of CRBN^E377V to bind Immunomodulatory agent compound.

Experiment [3] concerns the target CRBN (Homo sapiens, UniProt Q96SW2). The description is as above. Type of experiment: binding. The settings on record: recombinant CRBN WT expressed in DF15R; preincubation of cell extracts with free compound. Further details: re-express full length wild type (CRBN^WT); expressed in transfected cells; host or cells: DF15R (CRBN-deficient myeloma) cells, lentiviral transduction, cell extract. How it is done:
as §1, §2, §3

For the molecule `Cc1nc2cccc(N)c2c(=O)n1C1CCC(=O)NC1=O` (stereo not shown) [Compound A, 3-(5-amino-2-methyl-4-oxo-4H-quinazolin-3-yl)-piperidine-2,6-dione], in experiment [1] (co-treatment with 10 μM lenalidomide, 3H-thymidine incorporation), the “anti-proliferative effects on co-treatment with lenalidomide” value is given as “blocks anti-proliferative effects”. As for `Nc1cccc2c1CN(C1CCC(=O)NC1=O)C2=O` (stereo not shown) [lenalidomide, 3-(4-amino-1-oxo-1,3-dihydro-isoindol-2-yl)-piperidine-2,6-dione, reference compound], the “competition for CRBN” value in experiment [1] (co-culture with Compound A or Compound C) was “competes with Compound A and Compound C for CRBN”. As to `O=C1CCC(N2C(=O)c3ccccc3C2=O)C(=O)N1` (stereo not shown) [thalidomide], the figures for the “competition for CRBN binding to thalidomide analog-beads” value in experiment [2] and in experiment [3] were “competed” and “competed for binding to the beads”, respectively.
